According to patent publication US7947697B1, “8-(3-pentylamino)-2-methyl-3-(2-chloro-4-methoxyphenyl)-6,7-dihydro-5H-cyclopenta[d] pyrazolo[1,5-a]pyrimidine methanesulfonate as a CRF antagonist” (Ono Pharmaceutical Co., Ltd., priority 2003, dated 2011):
Entries after “also recorded” stand apart in the source; their conditions may differ.

Legend:
[1] = Thermal stability by differential scanning calorimetry (DSC); format: physicochemical; conditions: for thermal stability: DSC chart / heat
From the text: On the other hand, DSC chart of 8-(3-pentylamino)-2-methyl-3-(2-chloro-4-methoxyphenyl)-6,7-dihydro-5H-cyclopenta[d]pyrazolo[1,5-a]pyrimidine hydrochloride described in WO 02/053565 is shown in FIG. 2.
It was very surprising that the difference of the salt influenced heat stability like this greatly, and it was not easily expected.
(3) Differential Scanning Calorimeter (DSC)

human CRF1 receptor [2] = target: T1, human CRF1 receptor (Homo sapiens, UniProt P34998); test: Binding assay ([125I] h/r CRF, cell membrane fraction); conditions: membrane fraction of CHO-K1 cells expressing human CRF1 receptor; [125I] h/r CRF 0.25 nM; 2 hours, room temperature; read-out: affinity on CRF1 receptor (IC50)
T1 construct: expressed in transfected cells; F-12 medium fits
T1 sequence (P34998 24-415): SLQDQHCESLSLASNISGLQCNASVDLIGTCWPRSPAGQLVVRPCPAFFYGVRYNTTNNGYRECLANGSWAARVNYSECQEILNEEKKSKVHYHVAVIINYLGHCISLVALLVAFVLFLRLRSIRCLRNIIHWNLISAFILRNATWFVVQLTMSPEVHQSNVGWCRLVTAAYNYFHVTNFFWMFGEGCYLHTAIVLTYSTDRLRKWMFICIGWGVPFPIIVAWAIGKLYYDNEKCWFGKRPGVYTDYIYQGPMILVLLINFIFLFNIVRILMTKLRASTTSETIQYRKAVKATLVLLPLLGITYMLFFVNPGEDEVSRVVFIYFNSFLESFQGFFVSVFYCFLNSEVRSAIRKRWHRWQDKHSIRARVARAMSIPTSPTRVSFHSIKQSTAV
Description: Cell Membrane Preparation
After a cell line expressing a human CRF1 receptor (expressed cell line: CHO-K1 cells) was cultured to reach confluence, the cells were harvested with a scraper. Harvested cells were washed twice with PBS before being suspended in a binding assay buffer (Tris-HCl (50 mM, pH 7.0), EDTA (2 mM, pH 8.0), and MgCl2 (10 mM)) cooled by ice. Suspended cells were homogenized with a Downs-type homogenizer and subjected to centrifugation at 10,000 g to collect the membrane fraction. The harvested cell membrane fraction was re-suspended with a small quantity of the binding assay buffer, and further diluted with said buffer to 1 mg/mL. The membrane fraction thus obtained was used for binding assay.
Fifty μL of [^125I] h/r CRF prepared to 0.5 nM with binding assay buffer was added to siliconized 1.5 mL tubes. Each of 1 μL of compounds diluted in appropriate multiples, DMSO (for total binding use) and h/r CRF solution (100 μM, for the non-specific binding use) was added to the tubes. Samples of 50 μL each of the membrane fraction preparation were added to the tubes to initiate the reaction (final concentration of [^125I] h/r CRF: 0.25 nM), then the mixtures were incubated for 2 hours at room temperature. […] Radioactivity values of the respective tubes were measured with a γ-counter. […]

human CRF1 receptor [3] = target: T1, human CRF1 receptor; test: Receptor antagonistic activity (cyclic AMP assay); format: cell-based; conditions: cells expressing human CRF1 receptor; human/rat CRF-stimulated intracellular cyclic AMP; read-out: antagonist activity on CRF receptor (IC50)
Description: Receptor Antagonistic Activity (Cyclic AMP Assay):
A cell line expressing a human CRF1 receptor was cultured using 10% bovine embryo serum and 1% F-12 nutrient mixture containing antibiotics and antifungal under 37° C., 5% carbonic anhydride, 95% air. On the day before a measurement of cyclic AMP, the cell seed to 96-well plate to be 1×10^4 cell/well. On the measurement day, the cell was washed twice with F-12 nutrient mixture, and F-12 nutrient mixture/1 mM 3-isobutyl-1-methylxanthin (assay medium) (178 μL) was added to each well. After they were incubated for 10 minutes at 37° C., each of various concentrated solutions of the test compound (2 μL) was added, or DMSO (2 μL) was added to CRF group and blank group. After they were incubated for 15 minutes at 37° C., 10 nM assay medium containing human/rat CRF (20 μL) was added to the test compound group and CRF group. To the blank group, an assay medium containing 0.00001% acetic acid (20 μL) was added. Furthermore, they were incubated for 15 minutes at 37° C. […] The cumulative dosage of intracellular cyclic AMP was measured by Biotrak enzyme immunoassay system (Amersham Biosciences). […] The IC50 values calculated by nonlinear regression analysis with logarithm concentrate of the compound as the autonomous variable and cyclic AMP cumulative dosage as an induced variable

Solubility = format: physicochemical
[4] = Stability of the crystal for humidity and light; format: physicochemical

Which thermal stability [1] does the source give for `C1=Cc2cccc(OC[C@H]3CNCCO3)c2C1.O=S(=O)(O)c1ccccc1` [benzenesulfonate] here?
The thermal stability was “superior in thermal stability”.

With `CC1(C)C2CCC1(CS(=O)(=O)O)C(=O)C2.CCC(CC)Nc1c2c(nc3c(-c4ccc(OC)cc4Cl)c(C)nn13)CCC2` [camphorsulfonate (D, L, or DL)] as the molecule, how does the thermal stability [1] read?
Its thermal stability is “superior in thermal stability”.

With `CCC(CC)Nc1c2c(nc3c(-c4ccc(OC)cc4Cl)c(C)nn13)CCC2` [compound (1), 8-(3-pentylamino)-2-methyl-3-(2-chloro-4-methoxyphenyl)-6,7-dihydro-5H-cyclopenta[d]pyrazolo[1,5-a]pyrimidine methanesulfonate] as the molecule, how does the IC50 (human CRF1 receptor [2]) read?
The IC50 was less than 1000 nM.

What about the IC50 (human CRF1 receptor [3]) of the same molecule?
Its IC50 is less than 1000 nM.

And the thermal stability ([1]; listed as the methanesulfonate compound, methanesulfonate)?
The thermal stability was “superior thermal stability”.

And the thermal stability ([1]; methanesulfonate)?
The thermal stability was “steady; also recorded: superior in thermal stability”.

And the solubility (Solubility)?
The solubility was “remarkably superior”.

What about the disposition (Disposition) of the same molecule?
The disposition was “remarkably superior”.

And the toxicity (Toxicity)?
Its toxicity is “very low”.

And the stability for humidity [4]?
Its stability for humidity is “steady”.

And the stability for light [4]?
The stability for light was “steady”.

With `CCC(CC)Nc1c2c(nc3c(-c4ccc(OC)cc4Cl)c(C)nn13)CCC2.Cl` [the hydrochloride compound, 8-(3-pentylamino)-2-methyl-3-(2-chloro-4-methoxyphenyl)-6,7-dihydro-5H-cyclopenta[d]pyrazolo[1,5-a]pyrimidine hydrochloride, reference compound] as the molecule, how does the thermal stability ([1]; hydrochloride) read?
The thermal stability was “unstable compound to heat”.

And the thermal stability ([1]; listed as 8-(3-pentylamino)-2-methyl-3-(2-chloro-4-methoxyphenyl)-6,7-dihydro-5H-cyclopent, hydrochloride)?
The thermal stability was “poor”.

And the “temperature at which the DSC curve changed significantly” value ([1]; DSC chart FIG. 2, then changed gradually after over 50° C.)?
Its value is roughly 40 °C.

With `CCC(CC)Nc1c2c(nc3c(-c4ccc(OC)cc4Cl)c(C)nn13)CCC2.Cc1ccc(S(=O)(=O)O)cc1` [tosylate, 8-(3-pentylamino)-2-methyl-3-(2-chloro-4-methoxyphenyl)-6,7-dihydro-5H-cyclopenta[d]pyrazolo[1,5-a]pyrimidine tosylate] as the molecule, how does the thermal stability [1] read?
Its thermal stability is “superior in thermal stability”.
